Assay results taken from the NIST ThermoML archive (doi:10.1021/je400056z).

Experiment: xn = mol fraction of the nth substance listed
Details: Liquid, Vibrating tube method

CCCCCCCCCCCCC [tridecane] + O=C=O
Details	mass density [kg/m3]
353.12 K, 20000 kPa, x2 = 0.0955	732.3
353.12 K, 20000 kPa, x2 = 0.2526	735.2
353.12 K, 21000 kPa, x2 = 0.0955	733.1
353.12 K, 21000 kPa, x2 = 0.2526	736
353.12 K, 22000 kPa, x2 = 0.0955	733.9
353.12 K, 22000 kPa, x2 = 0.2526	736.8
353.12 K, 23000 kPa, x2 = 0.0955	734.6
353.12 K, 23000 kPa, x2 = 0.2526	737.6
353.12 K, 24000 kPa, x2 = 0.0955	735.4
353.12 K, 24000 kPa, x2 = 0.2526	738.5
353.12 K, 25000 kPa, x2 = 0.0955	736.1
353.12 K, 25000 kPa, x2 = 0.2526	739.2
353.13 K, 17000 kPa, x2 = 0.8978	677.4
353.13 K, 18000 kPa, x2 = 0.8978	689.5
353.13 K, 20000 kPa, x2 = 0.8978	712.3
353.13 K, 21000 kPa, x2 = 0.8978	721.9
353.13 K, 22000 kPa, x2 = 0.8978	730.6
353.13 K, 23000 kPa, x2 = 0.8978	738.3
353.13 K, 24000 kPa, x2 = 0.8978	745.5
353.13 K, 25000 kPa, x2 = 0.8978	752.2
353.15 K, 8000 kPa, x2 = 0.5259	729.7
353.15 K, 9000 kPa, x2 = 0.5259	731.2
353.15 K, 10000 kPa, x2 = 0.5259	732.7
353.15 K, 11000 kPa, x2 = 0.5259	734.2
353.15 K, 12000 kPa, x2 = 0.5259	735.6
353.15 K, 13000 kPa, x2 = 0.5259	737
353.15 K, 14000 kPa, x2 = 0.5259	738.3
353.15 K, 15000 kPa, x2 = 0.5259	739.7
353.15 K, 16000 kPa, x2 = 0.5259	741
353.15 K, 17000 kPa, x2 = 0.5259	742.3
353.15 K, 18000 kPa, x2 = 0.5259	743.6
353.15 K, 19000 kPa, x2 = 0.5259	744.9
353.15 K, 20000 kPa, x2 = 0.5259	746
353.15 K, 21000 kPa, x2 = 0.5259	747.3
353.15 K, 22000 kPa, x2 = 0.5259	748.4
353.15 K, 23000 kPa, x2 = 0.5259	749.6
353.15 K, 24000 kPa, x2 = 0.5259	750.6
353.15 K, 25000 kPa, x2 = 0.5259	751.8
353.35 K, 16000 kPa, x2 = 0.7549	739.7
353.35 K, 17000 kPa, x2 = 0.7549	742.7
353.35 K, 18000 kPa, x2 = 0.7549	745.7
353.35 K, 19000 kPa, x2 = 0.7549	748.7
353.35 K, 20000 kPa, x2 = 0.7549	751.8
353.35 K, 21000 kPa, x2 = 0.7549	754.9
353.35 K, 22000 kPa, x2 = 0.7549	757.9
353.35 K, 23000 kPa, x2 = 0.7549	760.8
353.35 K, 24000 kPa, x2 = 0.7549	763.8
353.35 K, 25000 kPa, x2 = 0.7549	766.7
363.07 K, 19000 kPa, x2 = 0.8978	671.9
363.07 K, 20000 kPa, x2 = 0.8978	681
363.07 K, 21000 kPa, x2 = 0.8978	691.1
363.07 K, 22000 kPa, x2 = 0.8978	700.8
363.07 K, 23000 kPa, x2 = 0.8978	709.5
363.07 K, 24000 kPa, x2 = 0.8978	717.3
363.07 K, 25000 kPa, x2 = 0.8978	724.8
363.11 K, 9000 kPa, x2 = 0.0955	715.7
363.11 K, 9000 kPa, x2 = 0.2526	717.4
363.11 K, 10000 kPa, x2 = 0.0955	716.7
363.11 K, 10000 kPa, x2 = 0.2526	718.4
363.11 K, 10000 kPa, x2 = 0.5259	723
363.11 K, 11000 kPa, x2 = 0.0955	717.7
363.11 K, 11000 kPa, x2 = 0.2526	719.5
363.11 K, 11000 kPa, x2 = 0.5259	724.6
363.11 K, 12000 kPa, x2 = 0.0955	718.7
363.11 K, 12000 kPa, x2 = 0.2526	720.5
363.11 K, 12000 kPa, x2 = 0.5259	726.2
363.11 K, 13000 kPa, x2 = 0.0955	719.6
363.11 K, 13000 kPa, x2 = 0.2526	721.5
363.11 K, 13000 kPa, x2 = 0.5259	727.6
363.11 K, 14000 kPa, x2 = 0.0955	720.5
363.11 K, 14000 kPa, x2 = 0.2526	722.6
363.11 K, 14000 kPa, x2 = 0.5259	729.2
363.11 K, 15000 kPa, x2 = 0.0955	721.5
363.11 K, 15000 kPa, x2 = 0.2526	723.6
363.11 K, 15000 kPa, x2 = 0.5259	730.6
363.11 K, 16000 kPa, x2 = 0.0955	722.4
363.11 K, 16000 kPa, x2 = 0.2526	724.6
363.11 K, 16000 kPa, x2 = 0.5259	732
363.11 K, 17000 kPa, x2 = 0.0955	723.3
363.11 K, 17000 kPa, x2 = 0.2526	725.5
363.11 K, 17000 kPa, x2 = 0.5259	733.4
363.11 K, 18000 kPa, x2 = 0.0955	724.1
363.11 K, 18000 kPa, x2 = 0.2526	726.4
363.11 K, 18000 kPa, x2 = 0.5259	734.7
363.11 K, 19000 kPa, x2 = 0.0955	725
363.11 K, 19000 kPa, x2 = 0.2526	727.4
363.11 K, 19000 kPa, x2 = 0.5259	736
363.11 K, 20000 kPa, x2 = 0.0955	725.8
363.11 K, 20000 kPa, x2 = 0.2526	728.3
363.11 K, 20000 kPa, x2 = 0.5259	737.3
363.11 K, 21000 kPa, x2 = 0.0955	726.6
363.11 K, 21000 kPa, x2 = 0.2526	729.2
363.11 K, 21000 kPa, x2 = 0.5259	738.6
363.11 K, 22000 kPa, x2 = 0.0955	727.5
363.11 K, 22000 kPa, x2 = 0.2526	730.1
363.11 K, 22000 kPa, x2 = 0.5259	739.9
363.11 K, 23000 kPa, x2 = 0.0955	728.3
363.11 K, 23000 kPa, x2 = 0.2526	731
363.11 K, 23000 kPa, x2 = 0.5259	741.1
363.11 K, 24000 kPa, x2 = 0.0955	729.1
363.11 K, 24000 kPa, x2 = 0.2526	731.8
363.11 K, 24000 kPa, x2 = 0.5259	742.3
363.11 K, 25000 kPa, x2 = 0.0955	729.9
363.11 K, 25000 kPa, x2 = 0.2526	732.7
363.11 K, 25000 kPa, x2 = 0.5259	743.4
363.34 K, 16000 kPa, x2 = 0.7549	720.1
363.34 K, 17000 kPa, x2 = 0.7549	724.7
363.34 K, 18000 kPa, x2 = 0.7549	728.3
363.34 K, 19000 kPa, x2 = 0.7549	730.8
363.34 K, 20000 kPa, x2 = 0.7549	734.2
363.34 K, 21000 kPa, x2 = 0.7549	737.3
363.34 K, 22000 kPa, x2 = 0.7549	740.5
363.34 K, 23000 kPa, x2 = 0.7549	743.8
363.34 K, 24000 kPa, x2 = 0.7549	746.9
363.34 K, 25000 kPa, x2 = 0.7549	750.1
